Assay results: EP2769723A1, “Compounds for use in inhibiting HIV capsid assembly” (priority 2013, dated 2014)
Where a name gives a salt, the structure may show the parent alone. Read-outs that look alike come from different tables or passages of the source.

Legend:
Assay type in all cases: cell-based
wild type NL4.3 HIV-1 = assay: Tissue culture infectivity test, TZM titration of supernatants from infected TZM cells; details: Human immunodeficiency virus 1, TZM
Procedure: Hits selected in the YFP-screen were further evaluated in the tissue culture experiments with cells infected with the wild type NL4.3 HIV-1. The virus for infection was obtained from co-culture of MT4 cells. The MT4 cells co-culture was synchronized for one week and then used for the infection of fresh MT 4 cells. 48 hrs post-infection was the culture supernatant harvested, cleared by the filtration through […] filter and stored in -80 °C in 1 ml aliquots. Amount of virus was quantified by enzyme-linked immuno sorbent assay (ELISA) with antibodies against HIV-1 CA (3 ng of CA/ml) and blue cell assay (1x10^5 IU/ml), which gives 3 x 10^4 IU/ng of CA.
For compounds testing the TZM cells were seeded on 96-well plate in the density 5 x 10^3 cells per well. The culture media was aspirated approx. 16 hrs later and cells were infected by the wild type NLA.3 HIV-1 by addition of 50J..il of prepared virus stock diluted with 50 µl of complete DMEM. The compounds were added twice to ensure that there are not any preassembled viruses present at the time of their addition. Compounds were first added 8 hrs post-infection and then 24 hrs later. In both cases the old culture media were replaced by 100 µl of fresh complete DMEM prior to the compounds addition. Different compounds concentrations were tested, but the DMSO concentration never exceeded 1 % DMSO. As controls were used cells treated only with 1 % DMSO and cells treated with 0,1 µM Lopinavir (HIV-1 protease inhibitor). Supernatant was harvested 24 hrs after the second compound addition, i.e. 56 hrs post-infection. Harvested supernatants were immediately titrated on the fresh TZM cells in aim to perform the infectivity assay (TZM titration), or inactivated by addition of Triton X-100 to the final concentration 0.025 % for further ELISA analysis.
TZM titration was performed on the cells seeded day before on 96-well plate in the density 5 x 10^3 cells per well. The analysis was performed for each compound concentration at three different dilutions and in duplicates. The culture media was aspired and cells were lysed 48 hrs post-infection by addition of 100 µl of SteadyGlo luciferase substrate (Promega) diluted 1 : 1 by complete DMEM. The luminescence signal was measured on Luminoskan Ascent (Thermo Labsystems) after the transfer of 80 µl of lysate to the flat bottom white polystyrene assay plates (Costar).

TZM cells = assay: in vitro; details: Table 4; non-cytotoxic when values higher than 80 % of 1 % DMSO treated cells
Procedure: (§1) Cytotoxicity of selected hits tested in the assay with NL4.3 infected cells was determined by MTT test. TZM cells were seeded on the previous day on 96-well plate in the density 5 x 10^3 cells per well. The tested compounds were added in different concentrations, but the DMSO concentration never exceeded 1 % DMSO. As controls were used cells treated only with 1 % DMSO (non-toxic concentration) and cells treated with 5 % DMSO (toxic concentration). 20 µl of the CellTiter 96 Aqueous One substrate (Promega) was added to the 100 µl of culture media 48 hrs after the compounds addition and the color development was quantified 4 hrs later by measuring the absorbance at 490 nm on Saphire reader. Compounds were consider non-cytotoxic (at given concentrations) when the measured values were higher than 80 % of the value of 1 % DMSO treated cells.

in vitro = details: human
Procedure: as §1

[1] = read-out: tissue culture IC50 (µM)
[2] = Table 4, non-cytotoxic when values higher than 80 % of 1 % DMSO treated cells, read-out: toxicity LC50
[3] = Table 5, MTT cytotoxicity test, read-out: CC50

| Compound | IC50 (wild type NL4.3 HIV-1; [1]) [µM] | toxicity LC50 (µM) (TZM cells) | other results |
| --- | --- | --- | --- |
| Cc1c(CO)sc2nc(-c3cccnc3)nc(Nc3cc(F)c(F)c(F)c3)c12 [KP-233] | > 10 | non-toxic | – |
| O=[N+]([O-])c1ccc(F)c(Nc2nc(-c3cccnc3)nc3cc(C(F)(F)F)ccc23)c1 [OSR-178] | ~5 | – | IC50 (wild type NL4.3 HIV-1): 1.5 µM; CC50 at 48 h (in vitro; [2]): ~11 µM; CC50 at 48 h (in vitro; [3]): 5 µM |
| Fc1c(F)c(F)c(Nc2nc(-c3cccnc3)nc3ccccc23)c(F)c1F [KP-107] | ~7 | non-toxic | – |
| CCOC(=O)c1sc2nc(-c3cccnc3)nc(Nc3cc(F)c(F)c(F)c3)c2c1C [KP-199] | > 10 | non-toxic | – |
| CNc1ccc(F)cc1Nc1nc(-c2cccnc2)nc2ccccc12 [AMR-560] | ~12 | non-toxic | – |
| COCCOc1cc2nc(-c3cccnc3)nc(Nc3ccc(C(=O)O)cc3O)c2cc1OCCOC [OSR-79 free base] | > 25 | non toxic | – |
| CC(C)Nc1nc(-c2cccnc2)nc2ccccc12 [OSR-295] | > 10 | non-toxic | – |
| Fc1cc(F)c(Nc2nc(-c3cccnc3)nc3ccccc23)cc1F [OSR-299] | ~10 | non-toxic | – |
| c1cncc(-c2nc(Oc3nc(-c4cccnc4)nc4ccccc34)c3ccccc3n2)c1 [OSA-296] | > 10 | non-toxic | – |
| NNC(=O)c1ccc(Nc2nc(-c3cccnc3)nc3ccccc23)cc1 [KP-242] | > 10 | non-toxic | – |
| Fc1cc(Nc2nc(-c3cncc(Br)c3)nc3ccccc23)cc(F)c1F [KP-158 (old)] | 0.5 to 1 | non-toxic | – |
| COc1ccc(Nc2nc(Cl)nc3ccccc23)cn1 [KP-288] | > 10 | non-toxic | – |
| O=C(O)c1ccc(Nc2nc(-c3ccncc3)nc3ccccc23)cc1 [AMR-542] | > 10 | non-toxic | – |
| CCOC(=O)N1CCC(Nc2nc(-c3ccncc3)nc3ccccc23)CC1 [AMR-577] | > 10 | non-toxic | – |
| CC(=O)OC[C@H]1O[C@@H](Sc2nc(-c3cccnc3)nc3ccccc23)[C@H](OC(C)=O)[C@@H](OC(C)=O)[C@@H]1OC(C)=O [KP-119] | > 25 | non-toxic | – |
| Fc1cc(Nc2nc(-c3cccnc3)nc3ccccc23)c(F)c(F)c1F [KP-98] | ~15 | non-toxic | – |
| CCOc1nc(-c2cccnc2)nc2ccccc12 [OSR-236] | – | non-toxic | IC50 (wild type NL4.3 HIV-1; Table 4, cells infected with wild type NL4.3 HIV-1, read-out: tissue culture IC50): 10 to 15 µM |
| Fc1cc(Nc2nc(Cl)nc3ccccc23)cc(F)c1F [KP-187] | > 10 | non-toxic | – |
| CS(=O)(=O)c1ccc(Nc2nc(-c3ccncc3)nc3ccccc23)cc1 [AMR-551] | > 10 | non-toxic | – |
| CC(=O)c1ccc(Nc2nc(-c3ccncc3)nc3ccccc23)cc1 [AMR-535] | < 5 | non-toxic | – |
| COc1ccc(Nc2nc(-c3cc(F)c(F)c(F)c3)nc3ccccc23)cn1 [KP-291] | > 10 | non-toxic | – |
| Fc1cc(Nc2nc(N3CCOCC3)nc3ccccc23)cc(F)c1F [KP-268] | > 10 | non-toxic | – |
| N#Cc1ccc(Nc2nc(-c3ccncc3)nc3ccccc23)cc1 [AMR-549] | > 10 | non-toxic | – |
| Cc1ccc(Nc2nc(-c3cccnc3)nc3ccccc23)cc1C(F)(F)F [KP-278] | ~10 | non-toxic | – |
| c1cncc(-c2nc(NC3CC3)c3ccccc3n2)c1 [KP-216] | > 10 | non-toxic | – |
| O=[N+]([O-])c1cnccc1Nc1nc(-c2cccnc2)nc2ccccc12 [KP-92] | ~8 | non-toxic | – |
| Fc1cc(Nc2cc(-c3cccnc3)nc3ccccc23)cc(F)c1F [OSR-205] | ~10 | non-toxic | – |

| Compound | IC50 (wild type NL4.3 HIV-1; [1]) [µM] | toxicity LC50 (µM) (TZM cells) | other results |
| --- | --- | --- | --- |
| CC(C)(C)Oc1nc(-c2cccnc2)nc2ccccc12 [OSR-285] | > 10 | non-toxic | – |
| O=[N+]([O-])c1ccc(Sc2nc(-c3cccnc3)nc3ccccc23)c(F)c1 [KP-76] | ~5 | non-toxic | – |
| c1cncc(-c2nc(N3CCOCC3)c3ccccc3n2)c1 [KP-190] | > 10 | non-toxic | – |
| Fc1ccc(Nc2nc(-c3cccnc3)nc3ccccc23)cc1Cl [KP-207] | > 10 | non-toxic | – |
| Fc1ccc(Nc2nc(-c3cccnc3)nc3ccccc23)cc1F [KP-271] | ~10 | non-toxic | – |
| c1cncc(-c2nc(Nc3ccncn3)c3ccccc3n2)c1 [KP-111] | ~18 | non-toxic | – |
| COc1ccc(Nc2nc(-c3cccnc3)nc3ccccc23)cn1 [KP-283] | > 10 | non-toxic | – |
| CCOP(=O)(OCC)c1cc([N+](=O)[O-])ccc1Nc1nc(-c2cccnc2)nc2ccccc12 [KP-139] | > 25 | non-toxic | – |
| CNc1ccc([N+](=O)[O-])cc1Nc1nc(-c2ccc(C(=O)c3ccccc3)cc2)nc2ccccc12 [OSR-77] | ~3 | – | IC50 (wild type NL4.3 HIV-1): 2 µM; CC50 at 48 h (in vitro; [2]): ~7 µM; CC50 at 48 h (in vitro; [3]): 7.1 µM |
| COCCN(CCOC)c1nc(-c2cccnc2)nc2ccccc12 [OSR-283 HCl] | > 10 | non-toxic | – |
| O=C(c1ccccc1)c1ccc(Nc2nc(-c3ccncc3)nc3ccccc23)cc1 [OSR-48] | > 25 | non toxic | – |
| C[S+]([O-])c1ccc(Nc2nc(-c3ccncc3)nc3ccccc23)cc1 (stereo not drawn) [AMR-573] | > 10 | non-toxic | – |
| Fc1cc(Nc2nc(-c3ccc(I)cc3)nc3ccccc23)cc(F)c1F [KP-161] | ~10 | non-toxic | – |
| Fc1cccc(Nc2nc(-c3cccnc3)nc3ccccc23)c1 [KP-165] | > 10 | non-toxic | – |
| Fc1cc(Nc2nc(Nc3cc(F)c(F)c(F)c3)c3ccccc3n2)cc(F)c1F [KP-265] | ~10 | non-toxic | – |
| NC(=O)c1ccc(Nc2nc(-c3ccncc3)nc3ccccc23)cc1 [AMR-556] | > 10 | non-toxic | – |
| c1ccc(Sc2nc(-c3cccnc3)nc3ccccc23)cc1 [OSR-290] | > 10 | non-toxic | – |
| C=Cc1ccc2nc(-c3cccnc3)nc(Nc3cc(F)c(F)c(F)c3)c2c1 [KP-130] | > 25 | non-toxic | – |
| Fc1cc(Nc2nc(-c3ccccc3)nc3ccccc23)cc(F)c1F [KP-153] | 10 to 15 | non-toxic | – |
| CN(C)c1nc(-c2cccnc2)nc2ccc(OS(C)(=O)=O)cc12 [OSR-302] | – | – | CC50 at 48 h (in vitro; [2]): ~7 µM |
| CCOC(=O)c1cccc(Nc2nc(-c3ccncc3)nc3ccccc23)c1 [AMR-541] | < 5 | non-toxic | – |
| Oc1cc(Cl)cc(Nc2nc(-c3cccnc3)nc3ccccc23)c1 [KP-251] | ~5 | non-toxic | – |
| COc1cc2nc(Nc3cc(F)c(F)c(F)c3)nc(Nc3cc(F)c(F)c(F)c3)c2cc1OC [KP-272] | < 5 | non-toxic | – |
| O=[N+]([O-])c1ccc(Nc2nc(-c3cccnc3)nc3ccccc23)c(I)c1 [KP-108] | ~1.5 | – | CC50 at 48 h (in vitro; [2]): ~20 µM |
| CNc1ccc(F)cc1Nc1nc(-c2ccncc2)nc2ccccc12 [AMR-558] | > 10 | non-toxic | – |
| O=S(=O)(c1ccc(Nc2nc(-c3cccnc3)nc3ccccc23)cc1)c1nccs1 [KP-270] | > 10 | non-toxic | – |
| COc1cc2c(Nc3ccc([N+](=O)[O-])cc3F)nc(-c3cccnc3)nc2c(OC)c1OC [KP-66] | ~5 | non-toxic | – |
